The target in assay [1] is Exportin-1 (Saccharomyces cerevisiae) (UniProt P30822). The experiment in a line: Inhibition of fluorescently labeled PKI phi(0)Leu NES binding to Saccharomyces cerevisiae CRM1 expressed in Escherichia coli BL21 (DE3) at 0.2 to 200 uM by fluorescence polarization competition binding assay.
The subject of assay [2] is Exportin-1 (Homo sapiens), O14980 [C528S]. The experiment in a line: Inhibition of fluorescently labeled PKI phi(0)Leu NES binding to human CRM1 C528S mutant expressed in Escherichia coli BL21 (DE3) at 6 uM by fluorescence polarization competition binding assay.
Assay [3] concerns the target T1, Exportin-1 (Homo sapiens, UniProt O14980). Nature of the assay: Inhibition of immobilized HsCRM1-HsRanGTP-HsSPN binding to C-terminal His6-tagged and MBP-fused full length human CRM1 expressed in Escherichia coli SG13009 at 100 nmol incubated for 20 mins by pull-down assay.
Assay [4] has as its target T1, Exportin-1. Nature of the assay: Inhibition of fluorescently labeled PKI phi(0)Leu NES binding to human CRM1 expressed in Escherichia coli BL21 (DE3) by fluorescence polarization competition binding assay.
The subject of assay [5] is Saccharomyces cerevisiae. Nature of the assay: Inhibition of fluorescently labeled PKI phi(0)Leu NES binding to Saccharomyces cerevisiae CRM1 Thr539Cys mutant expressed in Escherichia coli BL21 (DE3) at 0.2 to 200 uM by fluorescence polarization competition binding assay. Background: Polarisation of emitted light reports the rotation of a fluorescent probe.
In assay [6] the test system is Saccharomyces cerevisiae. Nature of the assay: Inhibition of fluorescently labeled PKI phi(0)Leu NES binding to Saccharomyces cerevisiae CRM1 Thr539Cys mutant expressed in Escherichia coli BL21 (DE3) at 2 to 2000 nM by fluorescence polarization competition binding assay.
Assay [7] deals with Exportin-1 (Homo sapiens), O14980 [C528S]. The settings on record: 200 nM.
Description: Inhibition of fluorescently labeled PKI phi(0)Leu NES binding to human CRM1 C528S mutant expressed in Escherichia coli BL21 (DE3) at 200 nM by fluorescence polarization competition binding assay
Assay [8] concerns the target Exportin-1 (Saccharomyces cerevisiae) (UniProt P30822). The settings on record: 2 to 2000 nM.
Description: Inhibition of fluorescently labeled PKI phi(0)Leu NES binding to Saccharomyces cerevisiae CRM1 expressed in Escherichia coli BL21 (DE3) at 2 to 2000 nM by fluorescence polarization competition binding assay
Assay [9] relates to Exportin-1 (Homo sapiens), O14980 [C528S]. The experiment in a line: Inhibition of fluorescently labeled PKI phi(0)Leu NES binding to human CRM1 C528S mutant expressed in Escherichia coli BL21 (DE3) at 62 uM by fluorescence polarization competition binding assay.
Assay [10] concerns the target Exportin-1 (Saccharomyces cerevisiae) (UniProt P30822). The experiment in a line: Inhibition of fluorescently labeled PKI phi(0)Leu NES binding to Saccharomyces cerevisiae CRM1 expressed in Escherichia coli BL21 (DE3) at 0.5 to 500 uM by fluorescence polarization competition binding assay.

The structures appear in SMILES notation. The source made the active and inactive calls. The calls are words filed in the database; no cut-off is given here.

Sequence of Exportin-1 (Homo sapiens), O14980 [C528S] (O14980 whole entry C528S, the tested form may be a part): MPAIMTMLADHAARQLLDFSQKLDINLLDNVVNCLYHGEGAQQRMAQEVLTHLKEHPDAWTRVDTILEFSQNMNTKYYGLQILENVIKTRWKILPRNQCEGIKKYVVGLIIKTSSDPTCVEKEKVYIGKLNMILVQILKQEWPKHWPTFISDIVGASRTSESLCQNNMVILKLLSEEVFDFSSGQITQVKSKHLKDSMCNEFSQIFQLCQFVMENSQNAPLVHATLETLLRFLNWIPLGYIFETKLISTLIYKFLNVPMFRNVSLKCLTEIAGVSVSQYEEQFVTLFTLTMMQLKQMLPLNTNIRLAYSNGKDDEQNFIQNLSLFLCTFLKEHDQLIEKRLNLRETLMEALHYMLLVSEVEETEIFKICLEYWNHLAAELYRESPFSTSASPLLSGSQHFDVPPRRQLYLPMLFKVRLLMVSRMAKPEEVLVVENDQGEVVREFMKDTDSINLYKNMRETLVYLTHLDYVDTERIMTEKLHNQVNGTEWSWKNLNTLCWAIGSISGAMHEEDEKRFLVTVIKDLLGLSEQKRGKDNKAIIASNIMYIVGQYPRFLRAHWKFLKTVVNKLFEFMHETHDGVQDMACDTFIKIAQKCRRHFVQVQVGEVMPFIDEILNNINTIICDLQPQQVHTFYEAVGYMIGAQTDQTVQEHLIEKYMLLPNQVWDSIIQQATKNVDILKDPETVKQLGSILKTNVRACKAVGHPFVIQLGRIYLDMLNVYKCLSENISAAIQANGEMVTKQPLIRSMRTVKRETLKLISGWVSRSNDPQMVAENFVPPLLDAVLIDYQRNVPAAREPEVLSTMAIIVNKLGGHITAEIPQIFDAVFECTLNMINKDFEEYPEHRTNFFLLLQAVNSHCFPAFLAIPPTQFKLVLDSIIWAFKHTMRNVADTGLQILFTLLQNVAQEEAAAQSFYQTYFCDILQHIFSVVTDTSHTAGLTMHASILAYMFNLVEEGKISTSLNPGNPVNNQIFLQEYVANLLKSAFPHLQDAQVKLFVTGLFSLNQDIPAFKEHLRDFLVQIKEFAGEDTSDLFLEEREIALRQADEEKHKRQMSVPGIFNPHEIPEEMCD
T1 sequence (O14980 whole entry, the tested form may be a part): as the sequence (O14980 whole entry C528S, the tested form may be a part) above, with S528C counted along it

What is called IC50 is the concentration needed to halve the response being measured. Lower therefore signals greater potency. For `COc1cc(-c2nc(S(=O)(=O)c3ccc(Cl)cc3)c(N(C)C)o2)cc(OC)c1OC`, the inhibition result (in [1]; in assay [2]; in the assay on Saccharomyces cerevisiae [5]) was “inactive” in each case. The inhibition entry at Exportin-1 [3] was “Active”. This molecule had an IC50 on Exportin-1 [4] of 4.2 µM. The inhibition entry at Exportin-1 [4] was “Dose-dependent effect”.
For `CCC(=C/[C@H](C)C/C=C/C(C)=C/[C@@H](C)C(=O)[C@@H](C)[C@H](O)[C@@H](C)C/C(C)=C/C(=O)O)/C=C/[C@@H]1OC(=O)C=C[C@@H]1C` [LEPTOMYCIN B], the inhibition result in the assay with Saccharomyces cerevisiae [6] is “Active”. On Exportin-1 [4], this molecule showed an IC50 of 0.151 µM. In addition, the inhibition entry in assay [7] and in assay [8] was “inactive” in each case.
`NC(=O)c1c(NC(NC(=O)c2ccccc2F)(C(F)(F)F)C(F)(F)F)sc2c1CCCC2`: the inhibition entry (in assay [1]; at Exportin-1 [3]; in assay [9]; with Saccharomyces cerevisiae [5]) was “inactive” in each case. In addition, the IC50 at Exportin-1 [4] was determined as 59 µM. The inhibition entry at Exportin-1 [4] was “Dose-dependent effect”.
For the molecule `COc1cc2cnsc2s1`, on Exportin-1 [3], the inhibition entry was “inactive”. Also, at Exportin-1 [4], the IC50 turned out to be 40 µM and the inhibition entry is “Dose-dependent effect”. For the same molecule, the inhibition result in assay [9] was “inactive”.
For the molecule `CCOC(=O)c1n[nH]c2c1C(=O)N(c1ccc([N+](=O)[O-])cc1)C2=O`, the inhibition result (on Exportin-1 [3]; in assay [10]; in [9]) was “Active” throughout. Further, the IC50 at Exportin-1 [4] is 63 µM.

(Values after ChEMBL document CHEMBL4613329, “Characterization of Inhibition Reveals Distinctive Properties for Human and Saccharomyces cerevisiae CRM1” (J Med Chem, 2020).)
